Data on one compound can be found in patent publication US10119972B2, “Reactive labelling compounds and uses thereof” (Academia Sinica, priority 2014, dated 2018).

Series [1] can be described thus: Fluorescence time course of ligation of 101 with ManNAz. The series is classed as physicochemical. Particulars: 101 (30 μM) with ManNAz (30 μM), PBS buffer containing 10% DMSO. As to the method: To probe the SPAAC reaction under the conditions that would be more typical for biomolecule labeling, we investigated the fluorescence response and time course for the reaction of 101 with ManNAz.
(§1) FIG. 16 describes (a) Absorption and Fluorescence emission spectra (λex=330 nm) of 101 (black), 111 (blue) and 112 (red) (45 μM, PBS buffer containing 10% DMSO, pH 7.4). (b) Time course of normalized fluorescence intensity at 435 nm (λex=330 nm) for the ligation reaction of 101 (30 μM) with N-azidoacetylmannosamine (30 μM) in PBS buffer containing 10% DMSO.
A solution of probe 101 (0.075 μmol) and N-azidoacetylmannosamine (0.075 μmol) in a mixture of 10% DMSO in PBS buffer (2.5 mL) was incubated at 37° C. The fluorescence emission intensity at 435 nm upon excitation at 330 nm was monitored in 5 min intervals. For each point the fluorescence intensity was measured over a period of 5 sec and averaged over a total of 3 points. In a control experiment the same conditions were used except that N-acetylmannosamine (0.075 μmol) was added to the solution.

The subject of series [2] is CL1-5 cells. In words: Live cell imaging of azido-glycoconjugates, no-wash and no-fixation. The series is classed as cell-based. Particulars: for cell permeability: live CL1-5 cells, intracellular labeling. How it is done: The performance of 101 in live cell imaging was evaluated. For this purpose, highly sialylated lung cancer cells, CL1-5, were cultured in the presence of peracetylated N-azidoacetylmannosamine (Ac4ManNAz) for 3 days to metabolically produce the azido-sialic acid expressed cells. As a negative control, CL1-5 cells were grown in the presence of peracetylated N-acetylmannosamine (Ac4ManNAc). A time course experiment was conducted by exposing the cells at 30-min intervals under no-wash and no-fixation conditions (FIG. 19, FIG. 22). […] Furthermore, the localization of azido-containing glycoconjugates in living cells was visualized by confocal microscopy. The cells labeled by probe 101 were subsequently stained with anti-GRASP65 followed by FITC-conjugated anti-rabbit for Golgi and propidium iodide (PI, a nuclei marker).
Toward this goal, CL1-5 cells were incubated with Ac4ManNAz for 1 h and subsequently removed excess Ac4ManNAz. We then performed the imaging to monitor the trafficking of the sialylated glycoconjugates. […] However, the appearance of blue fluorescence signal was detected on the cell surface after 5 h. The intensity of fluorescence increased over time, and reached saturation at 8 h (FIG. 21 and FIG. 23).
To observe the fluorescence labeled azido-glycoconjugates in cells, CL1-5 cells were seeded on chamber slide (2.5×10^4 cells/0.5 mL per wells) and incubated in culture medium (RPMI-1640 supplemented with 10% FBS, 100 U/mL penicillin, 100 μg/mL streptomycin, 1 mM L-glutamine and 1 mM sodium pyruvate) with either 200 μM of control sugar (peracetylated N-acetylmannosamine, Ac4ManNAc) or azido-sugar (peracetylated N-azidoacetylmannosamine, Ac4ManNAz) for 3 days.
For Time-lapse imaging of live cells, experiments were carried out using a confocal microscope (TCS-SP5-MP-SMD, Leica) equipped with an incubator to keep the cells in culture conditions. Prewashed cells were incubated with 100 μM of probe 101 in PBS with 10% DMSO and fluorescence imaging of live cells from the previous experiment over 1.5 h. The images were acquired at 450 nm emission and in 5-min intervals.
To observe the fluorescence labeled sialylconjugates in cells dependent on different time, CL1-5 cells were seeded on chamber slide (2.5×10^4 cells/0.5 mL per wells) and incubated in culture medium (RPMI-1640 supplemented with 10% FBS, 100 U/mL penicillin, 100 μg/mL streptomycin, 1 mM L-glutamine and 1 mM sodium pyruvate) with 500 μM of azido-sugar (peracetylated N-azidoacetylmannosamine, Ac4ManNAz) for 1 h. Cells were washed three times with PBS and then incubated in culture medium. […] For fluorescence imaging of live cells, experiments were carried out using a confocal microscope (TCS-SP5-MP-SMD, Leica) equipped with an incubator to keep the cells in culture conditions.

Series [3] is described as follows: Absorption and fluorescence spectroscopy under simulated physiological conditions. The series is classed as physicochemical. Particulars: PBS buffer containing 10% DMSO, pH 7.4. How it is done:
Formation of triazoles 111 and 112 were accompanied by a significant increase in fluorescence intensity with a large Stokes shift into a standard range for coumarin emission (FIG. 16a).
as §1

In series [4] the test system is living cells. In words: Cytotoxicity of probe in living cells. The series is classed as cell-based.
Series [5] is described as follows: SPAAC reaction kinetics of 101 with N-azidoacetylmannosamine monitored by 1H-NMR. The series is classed as physicochemical. Particulars: 20 mM, CD3OD-D2O (5:1, v/v), 25° C. As to the method: To evaluate the feasibility of compound 101 as a reagent for the SPAAC-based fluorescence labeling, its reaction scope and kinetics using benzyl azide as a model substrate was first studied. The SPAAC reaction of 101 with benzyl azide in acetonitrile was completed in 2 h at room temperature to give triazole 111 in 95% yield (Scheme 100). The reactivity of 101 with benzyl azide (1:1) in CD3CN was determined by integration of multiple chemical shifts in the ^1H-NMR spectrum to yield a second-order rate constant of 0.012 M^−1s^−1 at 25° C. […]
Part B: Compound 101 and N-azidoacetylmannosamine were predissolved in CD3OD/D2O (5:1, v/v), and then mixed at equimolar concentration of 20 mM. The reaction was monitored by ^1H-NMR analysis over a period of 1 h. The concentration of each component was determined, based on the concentration of initial compound 101, by integration at multiple chemical shifts in the ^1H-NMR spectrum. […] (M^−1) vs. time (sec), a second order rate constant in unit of M^−1s^−1 was determined using linear regression analysis. […]
FIG. 18 describes a Plot of 1/[101] vs. time for the reaction of compound 101 and N-azidoacetylmannosamine in a solution of CD3OD-D2O (5:1, v/v) as monitored by ^1H-NMR.

Entries after “also recorded” stand apart in the source; their conditions may differ.

For `O=c1ccc2cc3c(cc2o1)C#CCCCC3` [Compound 101, 6,7,8,9-Tetrahydro-10,11-didehydro-cycloocta[g]chromen-2(2H)-one], the “time for fluorescence intensity to reach a plateau” value in series [1] (435 nm (λex=330 nm)) was “less than 1 h”. Moreover, the ManNAz consumed result in series [1] (in 40 min) was “more than 90%”. In addition, the “incubation time to saturation of fluorescence intensity” value in series [2] (Ac4ManNAz treated CL1-5 cells, 100 μM probe, no-wash and no-fixation) amounted to 1.5 h. The background labeling result in series [2] (control cells grown with Ac4ManNAc) is listed as “background labeling is negligible”. In addition, the cell permeability result in series [2] was “cell-permeable”. In series [2] (listed as coumOCT), the cell permeability result is “cell-permeable probe”. Moreover, in series [3], the “Absorption (λmax, nm)” value is reported as 336 nm and the “Stokes shift” value is 5070 cm⁻¹. Besides, in series [3] (excitation at 330 nm), the “Emission (λmax, nm)” value was 405 nm. Further, the “ε (M^−1cm^−1), extinction coefficient” value in series [3] (measured at 340 nm) was 7800 M⁻¹ cm⁻¹. The “Φf, fluorescence quantum yield” value in series [3] (quinine sulfate (Φf = 0.54 ± 0.03) as standard) is recorded as 0.011. The cytotoxicity result in series [4] was “low cytotoxicity; also recorded: nontoxic”. In series [5], this compound showed a second-order rate constant of 0.010 M⁻¹ s⁻¹.
